PubChem BioAssay AID2060504 (Molecular Pharmacology Branch, DTP, NCI, 2025)
Each block holds one compound with its values, some of them ahead of it.

Test system: 636577-100-R-J1-PDC complex spheroid viability
Experiment: Anticancer human tumor 636577-100-R-J1-PDC patient-derived endometrial adenocarcinoma cell line growth inhibition [GQUAD]
Settings: for IC50: curve of first compound; for viability, T/C: stronger effect = lower value
Method in brief: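 Tumor cells were grown as complex spheroids with HUVEC endothelial cells and mesenchymal stem cells as stroma. G-quadruplex stabilizers were combined with targeted agents over half-log dilutions from near the clinical Cmax, or from 10 microM.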

[1] = second compound 0.0316 µM, first compound 0.0316 µM
[2] = second compound 0.0316 µM, first compound 0.1 µM
[3] = second compound 0.0316 µM, first compound 0.316 µM
[4] = second compound 0.0316 µM, first compound 1 µM
[5] = second compound 0.0316 µM, first compound 3.16 µM
[6] = second compound 0.0316 µM, first compound 10 µM
[7] = second compound 0.1 µM, first compound 0.0316 µM
[8] = second compound 0.1 µM, first compound 0.1 µM
[9] = second compound 0.1 µM, first compound 0.316 µM
[10] = second compound 0.1 µM, first compound 1 µM
[11] = second compound 0.1 µM, first compound 3.16 µM
[12] = second compound 0.1 µM, first compound 10 µM
[13] = second compound 0.316 µM, first compound 0.0316 µM
[14] = second compound 0.316 µM, first compound 0.1 µM
[15] = second compound 0.316 µM, first compound 0.316 µM
[16] = second compound 0.316 µM, first compound 1 µM
[17] = second compound 0.316 µM, first compound 3.16 µM
[18] = second compound 0.316 µM, first compound 10 µM
[19] = second compound 1 µM, first compound 0.0316 µM
[20] = second compound 1 µM, first compound 0.1 µM
[21] = second compound 1 µM, first compound 0.316 µM
[22] = second compound 1 µM, first compound 1 µM
[23] = second compound 1 µM, first compound 3.16 µM
[24] = second compound 1 µM, first compound 10 µM
[25] = second compound 3.16 µM, first compound 0.0316 µM
[26] = second compound 3.16 µM, first compound 0.1 µM
[27] = second compound 3.16 µM, first compound 0.316 µM
[28] = second compound 3.16 µM, first compound 1 µM
[29] = second compound 3.16 µM, first compound 3.16 µM
[30] = second compound 3.16 µM, first compound 10 µM
[31] = second compound 10 µM, first compound 0.0316 µM
[32] = second compound 10 µM, first compound 0.1 µM
[33] = second compound 10 µM, first compound 0.316 µM
[34] = second compound 10 µM, first compound 1 µM
[35] = second compound 10 µM, first compound 3.16 µM
[36] = second compound 10 µM, first compound 10 µM
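Further: viability read after seven days of drug exposure.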
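Wherever viability, T/C is given: luminescence signal used as a proxy for viable cells; 100% = DMSO vehicle control wells.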

IC50 (second compound 0.0316 µM): < 31.6 nM
IC50 (second compound 0.1 µM): < 31.6 nM
IC50 (second compound 0.316 µM): < 31.6 nM
IC50 (second compound 1 µM): < 31.6 nM
IC50 (second compound 3.16 µM): < 31.6 nM
IC50 (second compound 10 µM): < 31.6 nM
SMILES: COc1cc(C2c3cc4c(cc3C(OC3OC5COC(C)OC5C(O)C3O)C3COC(=O)C23)OCO4)cc(OC)c1O (stereo unspecified) + Cc1cnc(CNC(=O)c2c(=O)c3ccc(N4CCCN(C)CC4)nc3n3c2sc2ccccc23)cn1
viability, T/C [1]: 28.9%
viability, T/C [2]: 21.4%
viability, T/C [3]: 18.5%
viability, T/C [4]: 14.2%
viability, T/C [5]: 13.7%
viability, T/C [6]: 10.5%
viability, T/C [7]: 25.8%
viability, T/C [8]: 22.7%
viability, T/C [9]: 18.6%
viability, T/C [10]: 13.6%
viability, T/C [11]: 16.5%
viability, T/C [12]: 12.9%
viability, T/C [13]: 22.2%
viability, T/C [14]: 21.3%
viability, T/C [15]: 17.8%
viability, T/C [16]: 16.4%
viability, T/C [17]: 17%
viability, T/C [18]: 13.2%
viability, T/C [19]: 21.5%
viability, T/C [20]: 19.1%
viability, T/C [21]: 17.6%
viability, T/C [22]: 18.9%
viability, T/C [23]: 17.8%
viability, T/C [24]: 12.5%
viability, T/C [25]: 19.3%
viability, T/C [26]: 16.4%
viability, T/C [27]: 19.6%
viability, T/C [28]: 19.2%
viability, T/C [29]: 18.2%
viability, T/C [30]: 13.4%
viability, T/C [31]: 17.8%
viability, T/C [32]: 18.5%
viability, T/C [33]: 19.4%
viability, T/C [34]: 19.2%
viability, T/C [35]: 17.7%
viability, T/C [36]: 12.3%

IC50 (second compound 0.0316 µM): < 31.6 nM
IC50 (second compound 0.1 µM): < 31.6 nM
IC50 (second compound 0.316 µM): < 31.6 nM
IC50 (second compound 1 µM): < 31.6 nM
IC50 (second compound 3.16 µM): < 31.6 nM
IC50 (second compound 10 µM): < 31.6 nM
SMILES: Cc1cccc(N(C)C(=O)C2C(O)CCN2c2nc(C)cc(C(F)(F)F)c2C#N)c1 (stereo unspecified) + Cc1cnc(CNC(=O)c2c(=O)c3ccc(N4CCCN(C)CC4)nc3n3c2sc2ccccc23)cn1
viability, T/C [1]: 52.7%
viability, T/C [2]: 43.5%
viability, T/C [3]: 35%
viability, T/C [4]: 39.7%
viability, T/C [5]: 40.5%
viability, T/C [6]: 43.9%
viability, T/C [7]: 29.2%
viability, T/C [8]: 22.6%
viability, T/C [9]: 25.3%
viability, T/C [10]: 23.2%
viability, T/C [11]: 25.7%
viability, T/C [12]: 24.6%
viability, T/C [13]: 21.8%
viability, T/C [14]: 18.1%
viability, T/C [15]: 21.6%
viability, T/C [16]: 21.6%
viability, T/C [17]: 24.2%
viability, T/C [18]: 22.7%
viability, T/C [19]: 19.1%
viability, T/C [20]: 19.7%
viability, T/C [21]: 19.7%
viability, T/C [22]: 19.2%
viability, T/C [23]: 20.8%
viability, T/C [24]: 25.2%
viability, T/C [25]: 12.5%
viability, T/C [26]: 19.6%
viability, T/C [27]: 19.4%
viability, T/C [28]: 21%
viability, T/C [29]: 22.4%
viability, T/C [30]: 20.7%
viability, T/C [31]: 22.3%
viability, T/C [32]: 17.8%
viability, T/C [33]: 21%
viability, T/C [34]: 17.9%
viability, T/C [35]: 22.9%
viability, T/C [36]: 20.8%

IC50 (second compound 0.0316 µM): < 0.999 nM
IC50 (second compound 0.1 µM): < 0.999 nM
IC50 (second compound 0.316 µM): < 0.999 nM
IC50 (second compound 1 µM): < 0.999 nM
IC50 (second compound 3.16 µM): < 0.999 nM
IC50 (second compound 10 µM): < 0.999 nM
SMILES: Cn1ncnc1[C@H]1c2n[nH]c(=O)c3cc(F)cc(c23)N[C@@H]1c1ccc(F)cc1 + Cc1cnc(CNC(=O)c2c(=O)c3ccc(N4CCCN(C)CC4)nc3n3c2sc2ccccc23)cn1
viability, T/C (second compound 0.0316 µM, first compound 0.000999 µM): 47.9%
viability, T/C (second compound 0.0316 µM, first compound 0.00316 µM): 25.6%
viability, T/C (second compound 0.0316 µM, first compound 0.00999 µM): 39.7%
viability, T/C [1]: 24%
viability, T/C (second compound 0.0316 µM, first compound 0.0999 µM): 24.7%
viability, T/C [3]: 24.9%
viability, T/C (second compound 0.1 µM, first compound 0.000999 µM): 26.9%
viability, T/C (second compound 0.1 µM, first compound 0.00316 µM): 26.9%
viability, T/C (second compound 0.1 µM, first compound 0.00999 µM): 26.6%
viability, T/C [7]: 20.6%
viability, T/C (second compound 0.1 µM, first compound 0.0999 µM): 24.1%
viability, T/C [9]: 19.9%
viability, T/C (second compound 0.316 µM, first compound 0.000999 µM): 21%
viability, T/C (second compound 0.316 µM, first compound 0.00316 µM): 23.2%
viability, T/C (second compound 0.316 µM, first compound 0.00999 µM): 21.1%
viability, T/C [13]: 22.9%
viability, T/C (second compound 0.316 µM, first compound 0.0999 µM): 21.8%
viability, T/C [15]: 19.2%
viability, T/C (second compound 1 µM, first compound 0.000999 µM): 20.1%
viability, T/C (second compound 1 µM, first compound 0.00316 µM): 19%
viability, T/C (second compound 1 µM, first compound 0.00999 µM): 19.8%
viability, T/C [19]: 21%
viability, T/C (second compound 1 µM, first compound 0.0999 µM): 19.4%
viability, T/C [21]: 20.4%
viability, T/C (second compound 3.16 µM, first compound 0.000999 µM): 19%
viability, T/C (second compound 3.16 µM, first compound 0.00316 µM): 18.6%
viability, T/C (second compound 3.16 µM, first compound 0.00999 µM): 21.6%
viability, T/C [25]: 19.7%
viability, T/C (second compound 3.16 µM, first compound 0.0999 µM): 21.7%
viability, T/C [27]: 19.2%
viability, T/C (second compound 10 µM, first compound 0.000999 µM): 15.2%
viability, T/C (second compound 10 µM, first compound 0.00316 µM): 18.5%
viability, T/C (second compound 10 µM, first compound 0.00999 µM): 21.9%
viability, T/C [31]: 19.4%
viability, T/C (second compound 10 µM, first compound 0.0999 µM): 21.9%
viability, T/C [33]: 19.2%
